# Experiments:
# Assay in all cases: molybdate-based colorimetric ATPase assay
# Format in all cases: biochemical
# [1] = target: T1, ABCD1 (ALDP) (Homo sapiens, UniProt P33897); conditions: 10 mM MgCl2, pH 7.5, 37 °C
# T1 construct: full length, codon-optimized synthetic gene; C-terminal eYFP-Rho1D4 tag cut off with 3C protease; HEK293 Flp-In TREX; homodimer; in DDM/CHS, liposomes or MSP1D1 nanodiscs
# [2] = target: T1, ABCD1 (ALDP); conditions: DDM/CHS detergent; 5 mM ATP, 10 mM MgCl2, pH 7.5, 37 °C
# [3] = target: T1, ABCD1 (ALDP); conditions: DDM/CHS detergent; 5 mM ATP, 10 mM MgCl2, pH 7.5, 37 °C; remark: listed apart in the source
# [4] = target: T1, ABCD1 (ALDP); conditions: DDM/CHS detergent; 5 mM ATP, 10 mM MgCl2, pH 7.5, 37 °C; with C24:0-CoA; suggested competition for same site; no stimulation alone
# T1 sequence (P33897 whole entry): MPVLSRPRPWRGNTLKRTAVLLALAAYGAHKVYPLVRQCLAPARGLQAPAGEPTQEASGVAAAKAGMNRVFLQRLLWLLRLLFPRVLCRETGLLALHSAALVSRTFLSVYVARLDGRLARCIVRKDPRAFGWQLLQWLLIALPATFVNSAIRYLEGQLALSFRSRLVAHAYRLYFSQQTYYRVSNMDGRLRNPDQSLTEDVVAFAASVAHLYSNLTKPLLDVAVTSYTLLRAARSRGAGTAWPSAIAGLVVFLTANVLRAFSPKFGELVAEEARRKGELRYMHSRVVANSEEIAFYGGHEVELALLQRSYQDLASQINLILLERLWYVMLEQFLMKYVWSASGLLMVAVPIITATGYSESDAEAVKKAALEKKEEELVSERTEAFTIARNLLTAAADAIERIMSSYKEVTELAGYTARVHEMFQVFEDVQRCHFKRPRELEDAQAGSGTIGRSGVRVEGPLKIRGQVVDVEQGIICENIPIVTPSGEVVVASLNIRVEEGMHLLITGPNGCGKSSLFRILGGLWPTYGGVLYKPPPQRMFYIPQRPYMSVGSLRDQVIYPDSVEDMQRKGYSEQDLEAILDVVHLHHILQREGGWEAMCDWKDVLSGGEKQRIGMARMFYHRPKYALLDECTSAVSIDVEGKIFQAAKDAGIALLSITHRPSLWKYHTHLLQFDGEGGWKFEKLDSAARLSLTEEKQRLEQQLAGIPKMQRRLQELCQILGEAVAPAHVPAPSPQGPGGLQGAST
Structure (SMILES),inhibition of ATPase activity at 5 mM [1],ATPase rate stimulation at 0.1 and 1 mM [3],also measured
Nc1ncnc2c1ncn2[C@@H]1O[C@H](COP(=O)(O)OP(=O)(O)OP(O)(O)=S)[C@@H](O)[C@H]1O [ATPγS],sensitive to inhibition by sodium orthovanadate (VO4) or the non-hydrolysable ATP analog ATPγS,–,–
CCCCCCCC/C=C\CCCCCCCC(=O)SCCNC(=O)CCNC(=O)[C@H](O)C(C)(C)COP(=O)(O)OP(=O)(O)OC[C@H]1O[C@@H](n2cnc3c(N)ncnc32)[C@H](O)[C@@H]1OP(=O)(O)O [C18:1-CoA],–,–,ATPase rate stimulation [2]: we also observed ATPase rate stimulation by C18:1-CoA
CCCCCCCCCCCCCCCCCCCCCCCC(=O)SCCNC(=O)CCNC(=O)[C@H](O)C(C)(C)COP(=O)(O)OP(=O)(O)OC[C@H]1O[C@@H](n2cnc3c(N)ncnc32)[C@H](O)[C@@H]1OP(=O)(O)O [C24:0-CoA],–,we observed ATPase rate stimulation for C24:0-CoA and C26:0-CoA,–
CCCCCCCCCCCCCCCCCCCCCCCCCC(=O)SCCNC(=O)CCNC(=O)[C@H](O)C(C)(C)COP(=O)(O)OP(=O)(O)OC[C@H]1O[C@@H](n2cnc3c(N)ncnc32)[C@H](O)[C@@H]1OP(=O)(O)O [C26:0-CoA],–,we observed ATPase rate stimulation for C24:0-CoA and C26:0-CoA,–
CC(=O)SCCNC(=O)CCNC(=O)[C@H](O)C(C)(C)COP(=O)(O)OP(=O)(O)OC[C@H]1O[C@@H](n2cnc3c(N)ncnc32)[C@H](O)[C@@H]1OP(=O)(O)O [acetyl-CoA],–,–,decrease of C24:0-CoA stimulated ATPase [4]: it can partially inhibit ATPase stimulation by C24:0-CoA
[O]=[V]([OH])([OH])[OH] [sodium orthovanadate],ATP hydrolysis was sensitive to inhibition by sodium orthovanadate (VO4),–,–

# Reference: PMC8748874, “Structures of the human peroxisomal fatty acid transporter ABCD1 in a lipid environment” (Communications Biology, 2022)
